“And” between values parts separate entries of the source, which are not always exact repeats. Identical values can stand only once. Like-named read-outs stand apart in the source and are kept apart here.
What was measured:
[1] = tested on: Lewis Lung Carcinoma (LLC); experiment: Response of LLC tumors to suboptimal doxorubicin chemotherapy in WT and PHD2+/− mice; conditions: doxorubicin 2.5 mg/kg 3×/week
[2] = Cornea pocket assay with pellets containing VEGF or FGF-2; assay type: in vivo, mouse
From the text: We also performed cornea pocket assays and implanted pellets, containing VEGF or FGF-2, in endothelial PHD2Cre/+ mice.

B16 tumor = experiment: Response of B16 tumors to suboptimal cisplatin chemotherapy in WT and PHD2+/− mice; assay type: in vivo, mouse; conditions: for anti-tumor effect in PHD2+/− mice / anti-tumor effect in WT mice: B16 tumor
Protocol: […] TUMOR MODELS: 5 105 B16F10.9 melanoma and 105 Lewis lung carcinoma (LLC) cells were injected subcutaneously into the right flank or foot pad, respectively. […] Circulating tumor cells were scored on 1 ml of peripheral blood upon red blood cell lysis.
[…] […] The mice were sacrificed at defined time intervals after cell inoculation or when tumors reached a maximum size of 2 cm3.

[3] = PHD2+/− hearts upon doxorubicin treatment
[4] = PHD2+/− hearts upon doxorubicin treatment, versus WT
[5] = cisplatin 2.5 mg/kg 3×/week, listed as Cisplatin

Molecule: COc1cccc2c1C(=O)c1c(O)c3c(c(O)c1C2=O)C[C@@](O)(C(=O)CO)C[C@@H]3O[C@H]1C[C@H](N)[C@H](O)[C@H](C)O1 [doxorubicin]
- cardiac hypertrophy (PHD1 and PHD3 deficient mice after 2 months of treatment): significant cardiac hypertrophy
- capillary perfusion [3]: preserved
- oxidative stress (cardiac ROS) [3]: reduced
- Brain Natriuretic Peptide (BNP) expression [4]: lower levels
- interstitial fibrosis [4]: reduced interstitial fibrosis
- ejection fraction (EF) (PHD2+/− mice upon doxorubicin treatment): maintain or preserve the baseline EF levels
- capillary perfusion (WT hearts upon doxorubicin treatment): not preserved
- cardiac damage (doxorubicin 2.5 mg/kg 3×/week for four weeks, PHD2+/− mice): protected against cardiac damage
- ejection fraction (EF) (wild-type mice upon doxorubicin treatment): decreases
- anti-tumor effect in PHD2+/− mice [1]: responsive
- anti-tumor effect in PHD2+/− mice ([1]; listed as Doxorubicin): reduced the volume of LLC (Lewis lung carcinoma) tumor
- anti-tumor effect in WT mice ([1]; WT mice): not effective

Molecule: FGF-2: growth factor implanted as pellet in cornea pocket assay
- branching points per mm2 ([2]; PHD2Cre/+ mice, N=4): 580±87 per mm2
- vessel area ([2]; PHD2Cre/+ mice, N=4): 33.4±4%
- branching points per mm2 ([2]; PHD2lox/+ mice, N=4): 511±48 per mm2

Molecule: VEGF
- vessel area ([2]; PHD2Cre/+ mice, N=4): 23.2±1.6%
- vessel area ([2]; PHD2lox/+ mice, N=4): 27.7±2.3%
- branching points per mm2 ([2]; mouse, in vivo): 387±52 per mm2 and 345±60 per mm2

Molecule: N.N.[Cl][Pt][Cl] [cisplatin]
- anti-tumor effect in PHD2+/− mice (B16 tumor; cisplatin 2.5 mg/kg 3×/week): effective
- anti-tumor effect in PHD2+/− mice (B16 tumor; [5]): reduced the volume (A) and weight (B) of B16 tumor
- anti-tumor effect in WT mice (B16 tumor; cisplatin 2.5 mg/kg 3×/week): does not kill B16 tumor cells
- anti-tumor effect in WT mice (B16 tumor; [5]): not effective
- tumor size, smaller in PHD2+/− than WT mice (B16 tumor; cisplatin 2.5 mg/kg 3×/week, B16 tumors, 11 days after initiation of chemotherapy): 60%
- tumor apoptosis (active caspase 3) (B16 tumor; tumors implanted in PHD2+/− mice upon cisplatin treatment): increased
- tumor proliferation (B16 tumor; tumors implanted in PHD2+/− mice upon cisplatin treatment, compared to WT): reduced
